Tests used:
[1] = target: EGF receptor tyrosine kinase (Homo sapiens, UniProt P00533); assay: Protein kinase/phosphatase panel: EGF receptor tyrosine kinase; assay type: biochemical; settings: inhibitor 10 μM; 100 μM ATP
[2] = target: Insulin receptor tyrosine kinase (Homo sapiens, UniProt P06213); assay: Protein kinase/phosphatase panel: insulin receptor tyrosine kinase; assay type: biochemical; settings: inhibitor 10 μM; 100 μM ATP
PKC-θ = PKC-θ (Homo sapiens, UniProt Q04759); assay: Protein kinase/phosphatase panel: PKC-θ; assay type: biochemical; settings: inhibitor 10 μM; 100 μM ATP
Lck = Lck (Homo sapiens, UniProt P06239); assay: Protein kinase/phosphatase panel: Lck; assay type: biochemical; settings: inhibitor 10 μM; 100 μM ATP
P70S6K = P70S6K (Homo sapiens, UniProt P23443); assay: Protein kinase/phosphatase panel: P70S6K; assay type: biochemical; settings: inhibitor 10 μM; 100 μM ATP
CDK2/cyclinA = CDK2/cyclinA (Homo sapiens, UniProt P24941); assay: Protein kinase/phosphatase panel: CDK2/cyclinA; assay type: biochemical; settings: inhibitor 10 μM; 100 μM ATP
[3] = Number of circulating neutrophils in treated mice; assay type: in vivo; settings: inhibitor treated animals
Excerpt: The reduction in cell adhesion in these animals was not due to inhibitor-induced leukopenia as the number of circulating neutrophils was similar in both the control and experimental groups (2,857.3±803 and 2,730.7±1132.6 for control and inhibitor treated animals, respectively). The absolute number of circulating neutrophils in animals deficient in PI3Kδ was 2,997.7±776.1 (n=8).

[4] = Plasma concentration of the compound after oral administration; assay type: in vivo, mice; settings: when LTB4 was applied
Method: (§1) Animals received a single oral dose of either a compound in accordance with the invention (25 mg/kg for mice and 20 or 40 mg/kg for rats) or vehicle (PEG-400). Blood samples were subsequently drawn at indicated time points and plasma concentration of the compound determined after liquid-liquid extraction by LC/MS. The lower quantification limit was 50 ng/ml. Plasma samples from control animals (vehicle alone) were used as the blank control.

[5] = system: Akt phosphorylation in HUVECs; assay: Akt phosphorylation in TNFα-stimulated HUVECs (Western blot); assay type: cell-based, human; settings: 2 μM
neutrophils [6] = assay: Neutrophil chemotaxis across bare filter insert (Transwell) to LTB4; assay type: cell-based, mouse
Method: Neutrophil chemotaxis experiments were conducted as described [Roth et al., J. Immunoi. Methods, 188:97-116 (1995)]. Briefly, purified human neutrophils were incubated with DMSO (0.3% v/v) or an inhibitor in accordance with the invention reconstituted in DMSO (0.3%) for 20 minutes at room temperature. Cells were added to bare filter inserts (Transwell™ 5 μm pore size; Corning Costar, Cambridge, Mass.), that were placed into wells containing chemoattractants or control medium of a Ultra low 24-well cluster plate, and incubated for 1 hour at 37° C. in a 5% CO2 humidified environment. The number of neutrophils that migrated into the bottom well was determined by FACScan (Becton Dickinson, San Jose, Calif.). Results were expressed as percent neutrophil migration relative to the control (medium without inhibitor).
A dose response curve was generated to determine the concentration of LTB4 necessary to support half-maximal migration across a bare filter insert. Maximal transmigration for neutrophils purified from mouse bone marrow occurred between 100 to 250 nM of LTB4. […] Tager et al., J Exp. Med., 192:439-46 (2000). Treatment of WT neutrophils with 2 μM inhibitor in accordance with the invention diminished migration in response to LTB4 (30 nM) by ˜30%, a value equivalent to that observed for PI3Kδ deficient cells.

[7] = system: neutrophil accumulation in BAL fluid; assay: LPS-induced acute lung injury model, BAL fluid; assay type: in vivo; settings: for reduction in the accumulation of neutrophils in BAL fluid: one hour prior to LPS challenge
Method: Lewis rats to be treated with an inhibitor in accordance with the invention or vehicle control (PEG400) were first challenged with LPS [Asti et al., Pulm. Pharmacol Ther., 13:61-69 (2000)]. Briefly, the trachea was exposed by standard surgical procedures and 100 μl saline solution or saline containing LPS (Escherichia Coli Serotype 0111:B4, Sigma) was instilled. Six hours following the challenge, rats were euthanized and the bronchoalveolar lavage (BAL) fluid was collected for cell differentials. Total white blood cell (WBC) and neutrophil counts were determined (Hemavet™ 850 FS cell counter). Cell populations were identified by morphological examination of smears prepared by cytocentrifugation.
as §1

DNA-PK = DNA-PK (Homo sapiens, UniProt P78527); settings: inhibitor 10 μM; reported by Sadhu et al.; cited from earlier work
CHK1 = CHK1 (Homo sapiens, UniProt O14757); settings: inhibitor 10 μM; reported by Sadhu et al.; cited from earlier work
cSrc = cSrc (Homo sapiens, UniProt P12931); settings: inhibitor 10 μM; reported by Sadhu et al.; cited from earlier work
PKBα (Akt 1) = PKBα (Akt 1) (Homo sapiens, UniProt P31749); settings: inhibitor 10 μM; reported by Sadhu et al.; cited from earlier work
neutrophils [8] = settings: absence of hemodynamic forces; Sadhu et al.; cited from earlier work

PKBα (Akt 1), sequence (P31749 whole entry, species assumed): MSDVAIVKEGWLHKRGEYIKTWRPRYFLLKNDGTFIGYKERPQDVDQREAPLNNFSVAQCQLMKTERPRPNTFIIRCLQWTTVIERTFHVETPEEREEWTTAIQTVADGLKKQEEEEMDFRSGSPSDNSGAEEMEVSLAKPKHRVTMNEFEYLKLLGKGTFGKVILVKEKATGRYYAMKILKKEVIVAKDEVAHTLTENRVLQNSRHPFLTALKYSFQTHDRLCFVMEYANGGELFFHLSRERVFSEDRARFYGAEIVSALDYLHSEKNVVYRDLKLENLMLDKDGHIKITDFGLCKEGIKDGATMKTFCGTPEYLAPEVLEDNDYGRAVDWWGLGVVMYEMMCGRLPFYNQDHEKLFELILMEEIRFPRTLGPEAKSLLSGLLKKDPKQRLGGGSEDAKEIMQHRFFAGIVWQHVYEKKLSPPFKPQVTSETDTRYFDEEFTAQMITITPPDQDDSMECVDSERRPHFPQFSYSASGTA
Insulin receptor tyrosine kinase, sequence (P06213 28-1382): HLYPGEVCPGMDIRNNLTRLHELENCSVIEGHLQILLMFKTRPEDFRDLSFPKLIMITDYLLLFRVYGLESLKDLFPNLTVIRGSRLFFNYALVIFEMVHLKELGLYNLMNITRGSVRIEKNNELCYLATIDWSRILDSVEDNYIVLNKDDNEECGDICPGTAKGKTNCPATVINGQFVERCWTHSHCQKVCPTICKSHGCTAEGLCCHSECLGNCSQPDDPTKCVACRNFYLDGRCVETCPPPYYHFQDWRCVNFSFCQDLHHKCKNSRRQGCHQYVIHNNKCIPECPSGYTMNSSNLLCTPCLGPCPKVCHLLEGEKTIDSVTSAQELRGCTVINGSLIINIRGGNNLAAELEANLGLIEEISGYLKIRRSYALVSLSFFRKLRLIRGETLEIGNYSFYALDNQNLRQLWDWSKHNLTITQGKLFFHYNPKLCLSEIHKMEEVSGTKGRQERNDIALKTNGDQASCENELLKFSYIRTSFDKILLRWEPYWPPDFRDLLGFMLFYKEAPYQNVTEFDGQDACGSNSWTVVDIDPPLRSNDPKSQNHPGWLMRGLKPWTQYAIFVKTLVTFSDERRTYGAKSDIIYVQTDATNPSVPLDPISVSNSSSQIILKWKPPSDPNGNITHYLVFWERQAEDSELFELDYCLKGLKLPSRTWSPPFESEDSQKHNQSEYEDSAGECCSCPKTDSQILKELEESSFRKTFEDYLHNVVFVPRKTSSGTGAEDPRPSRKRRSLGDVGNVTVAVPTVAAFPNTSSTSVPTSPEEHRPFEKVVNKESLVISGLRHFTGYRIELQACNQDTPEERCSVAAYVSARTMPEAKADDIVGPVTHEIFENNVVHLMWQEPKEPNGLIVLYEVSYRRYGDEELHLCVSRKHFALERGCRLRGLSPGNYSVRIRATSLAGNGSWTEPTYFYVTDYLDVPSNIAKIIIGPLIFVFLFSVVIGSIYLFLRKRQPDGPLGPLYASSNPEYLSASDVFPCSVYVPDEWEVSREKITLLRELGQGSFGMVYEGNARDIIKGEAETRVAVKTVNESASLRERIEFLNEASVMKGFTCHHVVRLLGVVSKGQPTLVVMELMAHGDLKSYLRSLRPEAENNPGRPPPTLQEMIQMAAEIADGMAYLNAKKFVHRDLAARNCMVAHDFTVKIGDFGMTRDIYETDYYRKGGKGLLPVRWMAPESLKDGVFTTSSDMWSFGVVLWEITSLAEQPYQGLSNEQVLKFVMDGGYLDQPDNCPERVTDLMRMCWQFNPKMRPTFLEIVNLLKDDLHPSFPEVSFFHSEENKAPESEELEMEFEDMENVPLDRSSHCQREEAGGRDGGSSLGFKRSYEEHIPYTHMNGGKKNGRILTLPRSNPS
P70S6K, sequence (P23443 whole entry): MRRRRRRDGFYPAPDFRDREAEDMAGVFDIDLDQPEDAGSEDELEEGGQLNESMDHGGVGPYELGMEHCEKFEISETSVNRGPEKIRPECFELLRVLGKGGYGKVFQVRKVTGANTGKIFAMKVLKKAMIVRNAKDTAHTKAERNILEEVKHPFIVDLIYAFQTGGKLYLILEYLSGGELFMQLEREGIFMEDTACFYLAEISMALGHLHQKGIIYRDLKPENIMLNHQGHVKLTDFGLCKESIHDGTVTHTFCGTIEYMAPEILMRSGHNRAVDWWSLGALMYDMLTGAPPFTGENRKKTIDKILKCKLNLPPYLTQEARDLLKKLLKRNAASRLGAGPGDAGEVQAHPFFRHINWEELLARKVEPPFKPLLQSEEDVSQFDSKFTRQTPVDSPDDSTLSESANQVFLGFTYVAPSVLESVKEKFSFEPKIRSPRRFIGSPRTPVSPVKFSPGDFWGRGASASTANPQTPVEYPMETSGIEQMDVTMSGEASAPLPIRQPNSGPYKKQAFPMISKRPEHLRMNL
EGF receptor tyrosine kinase, sequence (P00533 25-1210): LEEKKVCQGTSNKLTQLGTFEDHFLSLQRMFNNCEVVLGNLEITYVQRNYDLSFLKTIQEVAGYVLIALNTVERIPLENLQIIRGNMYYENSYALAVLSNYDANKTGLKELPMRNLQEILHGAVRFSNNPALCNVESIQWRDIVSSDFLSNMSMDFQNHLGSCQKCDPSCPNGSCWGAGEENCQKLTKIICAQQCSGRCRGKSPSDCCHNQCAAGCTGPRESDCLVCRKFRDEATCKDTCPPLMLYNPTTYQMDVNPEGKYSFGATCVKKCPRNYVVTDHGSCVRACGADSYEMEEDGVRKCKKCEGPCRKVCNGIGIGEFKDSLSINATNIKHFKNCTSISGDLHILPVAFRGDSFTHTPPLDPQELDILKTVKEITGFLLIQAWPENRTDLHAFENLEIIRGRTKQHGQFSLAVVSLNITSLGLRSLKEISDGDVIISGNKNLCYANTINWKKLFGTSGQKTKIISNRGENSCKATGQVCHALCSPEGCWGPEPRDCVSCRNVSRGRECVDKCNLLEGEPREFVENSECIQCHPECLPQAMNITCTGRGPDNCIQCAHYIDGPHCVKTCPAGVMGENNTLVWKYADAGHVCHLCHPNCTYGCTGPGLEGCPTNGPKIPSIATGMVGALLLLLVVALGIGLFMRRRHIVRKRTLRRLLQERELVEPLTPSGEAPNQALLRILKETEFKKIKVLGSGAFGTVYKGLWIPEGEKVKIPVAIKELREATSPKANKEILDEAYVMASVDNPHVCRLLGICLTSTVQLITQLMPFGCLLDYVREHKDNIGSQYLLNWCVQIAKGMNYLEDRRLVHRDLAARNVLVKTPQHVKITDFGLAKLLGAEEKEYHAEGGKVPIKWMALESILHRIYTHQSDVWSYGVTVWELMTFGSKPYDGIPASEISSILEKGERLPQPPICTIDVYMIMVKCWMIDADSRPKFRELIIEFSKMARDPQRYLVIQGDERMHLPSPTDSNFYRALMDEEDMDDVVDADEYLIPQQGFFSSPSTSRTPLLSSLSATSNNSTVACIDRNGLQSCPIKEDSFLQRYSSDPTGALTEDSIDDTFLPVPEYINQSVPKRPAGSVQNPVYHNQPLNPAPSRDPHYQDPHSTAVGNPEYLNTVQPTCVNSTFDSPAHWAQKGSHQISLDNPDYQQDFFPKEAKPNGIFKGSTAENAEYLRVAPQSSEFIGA
PKC-θ, sequence (Q04759 whole entry): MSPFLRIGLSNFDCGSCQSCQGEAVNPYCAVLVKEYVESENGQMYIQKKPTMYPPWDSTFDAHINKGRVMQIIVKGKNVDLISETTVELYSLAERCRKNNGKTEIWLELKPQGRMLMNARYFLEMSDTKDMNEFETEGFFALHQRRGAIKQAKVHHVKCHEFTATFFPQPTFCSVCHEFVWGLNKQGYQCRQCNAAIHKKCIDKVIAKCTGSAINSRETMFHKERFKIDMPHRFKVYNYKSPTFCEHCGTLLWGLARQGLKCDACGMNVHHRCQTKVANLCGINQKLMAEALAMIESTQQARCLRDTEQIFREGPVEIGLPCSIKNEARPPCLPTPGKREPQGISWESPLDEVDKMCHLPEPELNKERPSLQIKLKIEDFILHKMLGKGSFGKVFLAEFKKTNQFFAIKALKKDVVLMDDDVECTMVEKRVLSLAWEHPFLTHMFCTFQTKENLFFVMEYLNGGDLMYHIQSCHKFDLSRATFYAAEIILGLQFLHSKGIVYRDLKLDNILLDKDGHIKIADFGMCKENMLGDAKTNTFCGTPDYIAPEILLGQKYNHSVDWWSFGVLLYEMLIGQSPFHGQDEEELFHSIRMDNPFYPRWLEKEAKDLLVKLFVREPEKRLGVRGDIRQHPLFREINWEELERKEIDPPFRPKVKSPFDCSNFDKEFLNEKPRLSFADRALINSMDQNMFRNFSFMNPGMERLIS
cSrc, sequence (P12931 whole entry, species assumed): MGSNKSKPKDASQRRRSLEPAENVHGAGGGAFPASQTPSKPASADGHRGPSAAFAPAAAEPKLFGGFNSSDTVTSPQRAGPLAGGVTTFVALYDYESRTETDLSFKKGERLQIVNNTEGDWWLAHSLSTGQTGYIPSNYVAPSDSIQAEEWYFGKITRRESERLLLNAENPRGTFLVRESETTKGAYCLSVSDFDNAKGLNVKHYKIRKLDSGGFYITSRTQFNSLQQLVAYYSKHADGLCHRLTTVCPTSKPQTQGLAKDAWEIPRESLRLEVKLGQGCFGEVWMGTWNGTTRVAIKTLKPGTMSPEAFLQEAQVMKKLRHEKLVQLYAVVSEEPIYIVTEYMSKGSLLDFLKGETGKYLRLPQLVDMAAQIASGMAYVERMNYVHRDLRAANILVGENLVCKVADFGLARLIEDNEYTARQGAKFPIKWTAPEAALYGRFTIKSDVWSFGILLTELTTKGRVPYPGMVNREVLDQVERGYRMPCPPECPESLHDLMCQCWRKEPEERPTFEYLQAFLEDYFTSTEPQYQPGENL

Cc1ccccc1-n1c(Cn2cnc3c(N)ncnc32)nc2cccc(C)c2c1=O
Activity (% of control) ± SD [1]: 102 ± 5.5 % of control | Activity (% of control) ± SD [2]: 98 ± 6.2 % of control | Activity (% of control) ± SD (PKC-θ): 97 ± 5.5 % of control | Activity (% of control) ± SD (Lck): 116.5 ± 9.2 % of control | Activity (% of control) ± SD (P70S6K): 98.5 ± 0.7 % of control | Activity (% of control) ± SD (CDK2/cyclinA): 92.5 ± 2.12 % of control | number of circulating neutrophils [3]: 2,730.7±1132.6 | inhibitor concentration (mean plasma) [4]: 12.8 ± 3.7 µM | phosphorylation of Akt (TNFα-mediated signaling) [5]: reduction in phosphorylation of Akt | diminished migration in response to LTB4 (neutrophils [6]; 2 μM, LTB4 30 nM, WT neutrophils): ~30% | chemotaxis of cells lacking PI3Kδ (neutrophils [6]; identical concentration (2 μM), PI3Kδ deficient cells): no further effects on chemotaxis | reduction in the accumulation of neutrophils in BAL fluid ([7]; 20 mg per kg oral): approximately 60% | reduction in the accumulation of neutrophils in BAL fluid ([7]; 40 mg per kg oral): ~80% | TNFα in BAL fluid ([7]; LPS-treated mice that received inhibitor): still detectable | Activity (% of control) ± SD (DNA-PK): No inhibition* | Activity (% of control) ± SD (CHK1): No inhibition* | Activity (% of control) ± SD (cSrc): No inhibition* | Activity (% of control) ± SD (PKBα (Akt 1)): No inhibition* | fMLP-induced chemotaxis on an ICAM-1 substrate in vitro (neutrophils [8]): diminished fMLP-induced chemotaxis

Source: patent US20080287469A1, “Phosphoinositide 3-Kinase Inhibitors for Inhibiting Leukocyte Accumulation” (priority 2005, published 2008)
